Results: PMC6941357, “An in vitro toolbox to accelerate anti-malarial drug discovery and development” (Malaria Journal, 2020)
Marks after values point to notes of the source that are not given here.

Experiments:
human plasma [1] = assay: Plasma protein binding via ultracentrifugation (UC); assay type: in vitro ADME; conditions: ultracentrifugation, neat plasma
Method in brief: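 Pooled human plasma (3–4 donors) spiked and ultracentrifuged; protein-free supernate gave Cunbound, parallel tubes kept at 37 °C gave Ctotal and stability (start vs end). Samples matrix-matched 1:1 with opposite blank and quantified against a common calibration curve; fu SD by error propagation.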

human plasma [2] = conditions: methods UF, ED, EP or not described per compound, ref [6]–[22] of Additional file 1; cited from earlier work
human plasma [3] = assay: Plasma protein binding via rapid equilibrium dialysis (RED), 10% plasma; assay type: in vitro ADME; conditions: RED, 10% plasma corrected for dilution, 6 h dialysis
Method in brief: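 Pooled human plasma (3–4 donors) was diluted 1:10 in pH 7.4 phosphate buffer with 0.04 M NaCl, spiked to ~1000–3000 ng/mL total, and dialysed in RED units at 37 °C with shaking. Devices were pre-conditioned with compound in buffer. Neat-plasma fu was back-calculated from 10% plasma Ctotal and Cunbound (mean of n = 3–4).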

human liver microsomes = assay: Binding to human liver microsomes via ultracentrifugation; assay type: in vitro ADME; conditions: 0.4 mg/mL protein
Method in brief: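 Unbound fraction by ultracentrifugation: Cunbound measured in protein-free supernate, Ctotal from spiked tubes held at 37 °C, sampled at start and end to check degradation. Matrix was 0.4 mg/mL human liver microsomal protein, 0.1 M phosphate pH 7.4; matrix-matched analysis against one calibration curve.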

Caco-2 cell monolayers = assay: Bidirectional permeability across Caco-2 cell monolayers
Method in brief: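 Transport run in both directions with either HBSS/20 mM HEPES pH 7.4 or human plasma in apical and basolateral chambers, 0.1% v/v DMSO in donor. Donor and acceptor samples quantified by LC–MS; Papp and mass balance calculated, with plasma Papp corrected for donor fraction unbound. Efflux ratio = mean B–A/A–B Papp.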

[4] = Blood to plasma partitioning; assay type: in vitro ADME, human; conditions: human whole blood, 37 °C
Description: Human whole blood was collected and supplied by the Volunteer Blood Donor Registry (Clinical Translation Centre, Walter & Eliza Hall Institute of Medical Research, Parkville, Australia) and used on the day of collection. The haematocrit (Hct) was determined by centrifugation (13,000×g for 3 min using Clemets® Microhaematocrit centrifuge and Safecap® Plain Self-sealing Mylar wrapped capillary tubes) to ensure it was between 0.40 and 0.48. An aliquot was centrifuged (Heraeus, Multifuge 3 S-R; 4500×g) for 10 min to obtain plasma required for matrix matching purposes as described below.
Two aliquots of the spiked whole blood were transferred to fresh microcentrifuge tubes and maintained at 37 °C/5% CO2 in a humidified incubator. The pH was confirmed to be 7.4 ± 0.1 at the start and end of the incubation. At each time point (30 min and 4 h), one whole blood tube was removed from the incubator and mixed by gentle inversion, after which four replicate blood samples were taken and matrix matched with an equal volume of blank plasma. The remainder of the blood sample was centrifuged (Eppendorf, Mini Spin plus; 6700×g) for 2 min for the collection of 4 replicate plasma samples which were similarly matrix matched with an equal volume of blank whole blood. The 1:1 mixtures of blood/plasma were mixed, snap frozen in dry ice and stored at − 80 °C until analysis by LC–MS (Additional file 1: Table S2) against calibration standards prepared in the same mixed matrix. Any further distribution of compound into RBCs at this stage was irrelevant as the cells were lysed during the sample preparation and the total concentration in the mixed matrix was measured for both the calibration standards and samples.
The apparent whole blood-to-plasma partitioning ratio (B/P) was calculated as the ratio of the average concentration in the blood sample to that in the plasma fraction of the same whole blood sample. A standard deviation (SD) for each B/P value was calculated using the propagation of errors approach as described previously.

[5] = matrix: human plasma, corrected for fu

SMILES | Fraction unbound, human plasma (human plasma [1]) | Literature fu (human plasma [2]) | Fraction unbound, human plasma (human plasma [3]) | Fraction unbound, HLM (human liver microsomes) | A–B Papp (Caco-2 cell monolayers; matrix: pH 7.4 buffer) | B–A Papp (Caco-2 cell monolayers; matrix: pH 7.4 buffer) | efflux ratio (Caco-2 cell monolayers; matrix: pH 7.4 buffer, mean B–A/A–B Papp) | B/P (whole blood to plasma partitioning ratio) [4] | A–B Papp (Caco-2 cell monolayers; [5]) | B–A Papp (Caco-2 cell monolayers; [5])
O=C(NCCN1CCCC1)c1cc(-c2ccc(CN3CCOCC3)cc2)nc2ccc(F)cc12 [M5717] | 0.34 (0.021) | 0.23 | 0.24 ± 0.0020^b | 0.50 ± 0.041 | 34 ± 2.6 10^−6 cm/s | 39 ± 7.6 10^−6 cm/s | 1.1 | 1.3 ± 0.02 |  | 
CC(C)(C)NCc1cc(C(C)(C)C)cc(-c2cnc(C(F)(F)F)c(F)c2)c1O [JPC3210] | 0.071 | 0.024 | 0.0011 (0.0002) | 0.029 ± 0.0030 |  |  |  | 0.54 ± 0.04 | > 300 10^−6 cm/s | > 300 10^−6 cm/s
